Measured values from article PMC5706701, “Development of a homogenous high-throughput assay for inositol hexakisphosphate kinase 1 activity” (PLoS ONE, 2017).
Where a name gives a salt, the structure may show the parent alone.

Target: T1, Human IP6K1 (Homo sapiens, UniProt Q92551)
T1 construct: GST (N, cleaved yes); made in house; host or cells: C43 E. coli, pGEX-6P-2
Experiment: IP6K1 high-throughput screen of the Sigma LOPAC (ADP-Glo Max, single point);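 also: final compound concentration 10µM in 5% DMSO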
Format: biochemical

[1] = LOPAC single-point screen, ADP-Glo Max luminescence raw signal per well
[2] = LOPAC single-point screen, Z-score relative to plate average and StDev
[3] = Sigma LOPAC single-point screen, ADP-Glo Max raw signal per well
[4] = Sigma LOPAC single-point screen, Z-score from plate average and StDev
[5] = LOPAC single-point screen, ADP-Glo Max raw signal per well
[6] = LOPAC single-point screen, Z-score against plate average and StDev
[7] = LOPAC single-point screen, Z-score from raw signal with plate average and StDev
[8] = LOPAC single-point screen, Z-score from plate average and StDev

T1 sequence (Q92551 whole entry): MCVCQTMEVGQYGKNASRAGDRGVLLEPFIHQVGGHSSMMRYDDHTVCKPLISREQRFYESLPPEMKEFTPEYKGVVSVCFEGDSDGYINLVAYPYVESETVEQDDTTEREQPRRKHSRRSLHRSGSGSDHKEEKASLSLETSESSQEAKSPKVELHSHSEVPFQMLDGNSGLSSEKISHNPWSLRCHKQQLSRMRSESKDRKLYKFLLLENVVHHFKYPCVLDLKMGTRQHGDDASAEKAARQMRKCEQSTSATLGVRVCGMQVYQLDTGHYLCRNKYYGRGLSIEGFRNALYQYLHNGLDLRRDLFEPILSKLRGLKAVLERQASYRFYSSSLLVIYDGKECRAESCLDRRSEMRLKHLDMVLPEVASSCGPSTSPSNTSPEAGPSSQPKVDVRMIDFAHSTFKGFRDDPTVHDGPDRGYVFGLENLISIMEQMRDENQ

SMILES | Raw Signal [1] | Z-score [2] | Raw Signal [3] | Z-score [4] | Raw Signal [5] | also measured
C[C@H]1c2cccc(O)c2C(=O)C2=C(O)[C@]3(O)C(=O)C(C(N)=O)=C(O)[C@@H](N(C)C)[C@@H]3[C@@H](O)[C@@H]21 [Doxycycline hydrochloride] | 51944 | -0.6546 |  |  |  | 
CN(C)CCOC(C)(c1ccccc1)c1ccccn1 (centres unmarked) [Doxylamine succinate] | 49925 | -1.065 |  |  |  | 
O=C(CCCN1CC=C(n2c(=O)[nH]c3ccccc32)CC1)c1ccc(F)cc1 [Droperidol] | 49359 | -1.18 |  |  |  | 
COc1c2c(nc3ccccc13)OC(C(C)(O)CO)C2 (centres unmarked) [Dubinidine] | 52835 | -0.4736 |  |  |  | 
CC(C)CC(NC(=O)C1OC1C(=O)O)C(=O)NCCCCNC(=N)N (centres unmarked) [E-64] |  |  | 60196 | 1.021 |  | 
CCCCCCCCCCCCCCCCCCOCC(COP(=O)([O-])OCC[N+](C)(C)C)OC (centres unmarked) [ET-18-OCH3] | 51314 | -0.7825 |  |  |  | 
O=c1c2ccccc2[se]n1-c1ccccc1 [Ebselen] |  |  |  |  | 54986 | Z-score [6]: -0.03677
CC[N+](C)(C)c1cccc(O)c1 [Edrophonium chloride] |  |  | 58129 | 0.6015 |  | 
CCC1(C2=NCCN2)Cc2ccccc2O1 (centres unmarked) [Efaroxan hydrochloride] |  |  |  |  | 53966 | Z-score [7]: -0.2439
Cc1c2ccncc2c(C)c2c1[nH]c1ccccc12 [Ellipticine] | 50782 | -0.8906 |  |  |  | 
CC[C@H]1CN2CCc3cc(OC)c(OC)cc3[C@@H]2C[C@@H]1C[C@H]1NCCc2cc(OC)c(OC)cc21 [Emetine dihydrochloride hydrate] |  |  |  |  | 52998 | Z-score [7]: -0.4405
Cc1cc(O)c2c(c1)C(=O)c1cc(O)cc(O)c1C2=O [Emodin] |  |  | 61234 | 1.232 |  | 
O=C(O)[C@@H]1[C@H](C(=O)O)[C@H]2CC[C@@H]1O2 [Endothall] |  |  | 58370 | 0.6505 |  | 
CSc1ccc(C(=O)c2[nH]c(=O)[nH]c2C)cc1 [Enoximone] | 64614 |  |  |  |  | Z-score [8]: 1.919
CC(C)C[C@H](NC(=O)[C@H](O)[C@H](N)Cc1ccccc1)C(=O)O [Epibestatin hydrochloride] |  |  |  |  | 58771 | Z-score [6]: 0.1511
CC(C)[C@@]1(NC(=O)[C@@H]2C=C3c4cccc5[nH]cc(c45)C[C@H]3N(C)C2)O[C@@]2(O)[C@@H]3CCCN3C(=O)[C@H](Cc3ccccc3)N2C1=O [Ergocristine] | 51436 | -0.7577 |  |  |  | 
C[C@]12CC[C@@H]3c4ccc(O)cc4CC[C@H]3[C@@H]1CCC2=O [Estrone] |  |  |  |  | 53604 | Z-score [7]: -0.3174
CCOC(=O)c1cnc2c(cnn2CC)c1NN=C(C)C [Etazolate hydrochloride] | 51155 | -0.8148 |  |  |  | 
CCC1(C)CC(=O)NC1=O (centres unmarked) [Ethosuximide] |  |  | 57090 | 0.3905 |  | 
CCc1cccc2c3c([nH]c12)C(CC)(CC(=O)O)OCC3 (centres unmarked) [Etodolac] |  |  | 60333 | 1.049 |  | 
COc1cc([C@@H]2c3cc4c(cc3[C@@H](O[C@@H]3O[C@@H]5CO[C@@H](C)O[C@H]5[C@H](O)[C@H]3O)[C@H]3COC(=O)[C@H]23)OCO4)cc(OC)c1O [Etoposide] |  |  |  |  | 53339 | Z-score [7]: -0.3713
COC(=O)c1c(C)[nH]c(C)c1C(=O)c1ccccc1Cc1ccccc1 [FPL 64176] |  |  |  |  | 56544 | Z-score [6]: 0.2796
CCCn1c(=O)c2[nH]c(C3CCCC3)nc2n(CCCOC(=O)c2ccc(S(=O)(=O)F)cc2)c1=O [FSCPX] | 51325 | -0.7803 |  |  |  | 

SMILES | Raw Signal [1] | Z-score [2] | Raw Signal [3] | Z-score [4] | Raw Signal [5] | also measured
NC(N)=Nc1nc(CSCCC(N)=NS(N)(=O)=O)cs1 [Famotidine] |  |  |  |  | 53127 | Z-score [7]: -0.4143
CC(C)=CCC/C(C)=C/CC/C(C)=C/CSc1ccccc1C(=O)O [Farnesylthiosalicylic acid] | 51239 | -0.7977 |  |  |  | 
NC(=O)OCC(COC(N)=O)c1ccccc1 [Felbamate] |  |  | 58283 | 0.6328 |  | 
CCOC(=O)C1=C(C)NC(C)=C(C(=O)OC)C1c1cccc(Cl)c1Cl (centres unmarked) [Felodipine] | 52611 | -0.5191 |  |  |  | 
CC(C)OC(=O)C(C)(C)Oc1ccc(C(=O)c2ccc(Cl)cc2)cc1 [Fenofibrate] | 61843 |  |  |  |  | Z-score [8]: 1.356
Oc1ccc(C2CNCCc3c2cc(O)c(O)c3Cl)cc1 (centres unmarked) [Fenoldopam bromide] |  |  | 59808 | 0.9425 |  | 
CC(Cc1ccc(O)cc1)NCC(O)c1cc(O)cc(O)c1 (centres unmarked) [Fenoterol hydrobromide] |  |  |  |  | 56195 | Z-score [6]: 0.2088
O=C1NCC2(CCN(CCc3ccccc3)CC2)O1 [Fenspiride hydrochloride] |  |  |  |  | 54758 | Z-score [6]: -0.08307
CC(C)(C(=O)O)c1ccc(C(O)CCCN2CCC(C(O)(c3ccccc3)c3ccccc3)CC2)cc1 (centres unmarked) [Fexofenadine hydrochloride] |  |  | 58731 | 0.7238 |  | 
COc1cccc2c1[C@@H]1CN(CCCCn3c(=O)[nH]c4c(sc5ncc(-c6ccccc6)nc54)c3=O)C[C@@H]1CO2 [Fiduxosin hydrochloride] |  |  |  |  | 56814 | Z-score [6]: 0.3345
O=C(NCC1CCCCN1)c1cc(OCC(F)(F)F)ccc1OCC(F)(F)F (centres unmarked) [Flecainide acetate] | 50763 | -0.8944 |  |  |  | 
CCOC(=O)c1ncn2c1CN(C)C(=O)c1cc(F)ccc1-2 [Flumazenil] | 52634 | -0.5144 |  |  |  | 
Fc1ccc(C(c2ccc(F)cc2)N2CCN(C/C=C/c3ccccc3)CC2)cc1 [Flunarizine dihydrochloride] |  |  | 58645 | 0.7063 |  | 
CNCCC(Oc1ccc(C(F)(F)F)cc1)c1ccccc1 (centres unmarked) [Fluoxetine hydrochloride] |  |  | 60043 | 0.9903 |  | 
OCCN1CCN(CCCN2c3ccccc3Sc3ccc(C(F)(F)F)cc32)CC1 [Fluphenazine dihydrochloride] |  |  | 57313 | 0.4358 |  | 
CCOC(=O)Nc1ccc(NCc2ccc(F)cc2)nc1N [Flupirtine maleate] |  |  |  |  | 54811 | Z-score [6]: -0.07231
O=C1NCN(c2ccccc2)C12CCN(CCCC(c1ccc(F)cc1)c1ccc(F)cc1)CC2 [Fluspirilene] | 52037 | -0.6357 |  |  |  | 
CC(C)C(=O)Nc1ccc([N+](=O)[O-])c(C(F)(F)F)c1 [Flutamide] | 64684 |  |  |  |  | Z-score [8]: 1.9328
COCCCC/C(=N\OCCN)c1ccc(C(F)(F)F)cc1 [Fluvoxamine maleate] |  |  | 56948 | 0.3617 |  | 
C=C[C@@]1(C)CC(=O)[C@]2(O)[C@@]3(C)[C@@H](O)CCC(C)(C)[C@@H]3[C@H](O)[C@H](OC(C)=O)[C@@]2(C)O1 [Forskolin] |  |  | 61603 | 1.307 |  | 
Cc1nc2c([nH]1)c(=O)n(C)c(=O)n2Cc1ccco1 [Furafylline] |  |  |  |  | 55994 | Z-score [6]: 0.1679
O=C([O-])c1cc2cc(Cc3cccnc3)ccc2o1.[Na+] [Furegrelate sodium] |  |  |  |  | 53193 | Z-score [7]: -0.4009
NS(=O)(=O)c1cc(C(=O)O)c(NCc2ccco2)cc1Cl [Furosemide] |  |  |  |  | 53546 | Z-score [7]: -0.3292
